Data on nine compounds can be found in patent US8906848B2, “Aureobasidin derivatives and methods of synthesis” (priority 2011, dated 2014).

The subject of one data set is C. albicans. The data set is described as follows: MIC, broth dilution CLSI M38-A2 with YPD medium (Table 2). The class given is cell-based. On the procedure: (§1) The activities of several exemplary compounds of the present invention were assayed according to the CLSI standard M38-A2 titled “Reference Method for Broth Dilution Antifungal Susceptibility Testing of Filamentous Fungi”. However, the RPMI-1640 broth is substituted for a YPD medium formulated according to the following steps: […]
(§2) 1. Dissolve 10 g of BactoYeast extract in 500 ml water
(§3) 2. Dissolve 20 g of BactoPeptone in the above solution
(§4) 3. Dissolve 20 g Dextrose in the above solution* *Ordinary table sugar (sucrose) substituted for dextrose routinely.
(§5) 4. q.s. to 1000 ml with water
Background: Dilution methods test growth across graded concentrations, often in twofold steps.

Data set [1] in a line: Pharmacokinetic study in mice, oral gavage, plasma by HPLC-MS. The class given is in vivo. The conditions noted are these: single 200 mg/kg oral gavage. On the procedure: Referring to FIG. 5, mice were administered a single 200 mg/kg bolus dose of 3-pyridyl-mPhe^4-AbA (diamonds) or AbA (squares), by oral gavage. Blood was collected a timed intervals after administration of the drug and analyzed for compound content by HPLC-MS.

In the next data set the test system is Candida albicans SC5413. The experiment in a line: Candidiasis model in immunosuppressed mice, mortality. The class given is in vivo. On the procedure:
Referring to FIG. 6, Mice, immunosuppressed with cyclophosphamide, were inoculated with 8 log 10 CFU Candida albicans SC5413 and dosed (following inoculation) with 3-pyridyl-mPhe^4-AbA (or a control antibiotic) orally, BID, for four consecutive days. Efficacy was determined by enumerating mortality.

The test system of data set [2] is Candida species, including C. albicans. The conditions noted are these: virtually all Candida species; cited from earlier work.
Data set [3] relates to Cryptococcus species, including C. neoformans. The conditions noted are these: most Cryptococcus species; cited from earlier work.
For another data set, the system named is Aspergilli, A. fumigatus. The conditions noted are these: most Aspergilli, most notably A. fumigatus; cited from earlier work.
The conditions of data set [4]: animals and humans; cited from earlier work.
A further data set relates to A. fumigatus. The data set is described as follows: MIC, broth dilution CLSI M38-A2 with YPD medium (Table 2). Format: cell-based. The conditions noted are these: compound purity ~85%. As for the experimental part: as §1, §2, §3, §4, §5
Data set [5] deals with Fusarium oxysporum 0893 (ATCC48112). The data set is described as follows: MIC, antifungal spectrum (Table 3). The conditions noted are these: at 96 hr. Format: cell-based. On the procedure: as §1, §2, §3, §4, §5
For data set [6], the system named is Sporothrix schenkii 892 (ATCC14284). The experiment in a line: MIC, antifungal spectrum (Table 3). The conditions noted are these: at 96 hrs. The class given is cell-based. On the procedure:
as §1, §2, §3, §4, §5

In data set [7] the test system is Trychophyton mentagrophytes 5278 (ATCC MYA-4439). The experiment in a line: MIC, antifungal spectrum (Table 3). The conditions noted are these: at 96 hrs. The class given is cell-based. As for the experimental part:
as §1, §2, §3, §4, §5

Data set [8] relates to Trychophyton rubrum 5279 (ATCC MYA-4438). The data set is described as follows: MIC, antifungal spectrum (Table 3). Format: cell-based. The conditions noted are these: at 72 hrs. As for the experimental part:
as §1, §2, §3, §4, §5

The mark [9] stands for this setting: YPD medium, compound purity ~85%.

Where two headings read alike, the source gives them in different places. Starred links: 1 amine or outer side, 2 acyl side, 3 side chain; linkers in the order of their positions; H or OH if unused. Non-standard residues stand in square brackets, D forms with d. Residues, ends and D or L forms follow the SMILES beside them. NMePhe(3-(3-pyridyl)) = CN[C@@H](Cc1cccc(-c2cccnc2)c1)C(=O)O; NMePhe(3-Ph) = CN[C@@H](Cc1cccc(-c2ccccc2)c1)C(=O)O; X2 = CN([C@@H](Cc1cccc(B(O)O)c1)C(=O)[*:2])[*:1]; NMePhe(3-Br) = CN[C@@H](Cc1cccc(Br)c1)C(=O)O; Phe(3-Br) = N[C@@H](Cc1cccc(Br)c1)C(=O)O; X1 = CC[C@@H](C)[C@@H](O[*:1])C(=O)[*:2]; NMeVal(β-OH) = CN[C@H](C(=O)O)C(C)(C)O; aIle = CC[C@@H](C)[C@H](N)C(=O)O; NMeV = CN[C@H](C(=O)O)C(C)C

Consider `CCC(C)[C@@H]1NC(=O)[C@@H]2CCCN2C(=O)[C@H](Cc2ccccc2)N(C)C(=O)[C@H](Cc2ccccc2)NC(=O)[C@H](C(C)C)N(C)C(=O)[C@@H](C(C)CC)OC(=O)C(C(C)(C)O)N(C)C(=O)[C@H](CC(C)C)NC(=O)[C@H](C(C)C)N(C)C1=O` (stereo in doubt) [AbA (native), Aureobasidin A], for which, in the data set with C. albicans (setting [9]), the “MIC for C. albicans” value was <0.05 mg/L. For the same compound, the “plasma concentration trend at the end of the 12 hour experiment” value in data set [1] is recorded as “decreasing”. Besides, the ED50 result in the data set on Candida albicans SC5413 (cyclophosphamide-immunosuppressed mice, oral, BID, four consecutive days, mortality) is on record as “about 25 mg/kg”. Further, the “efficacy against Candida species” value in [2] is given as “very efficacious”. Moreover, the “efficacy against Cryptococcus species” value in data set [3] is on record as “efficacious”. Also, the “activity towards Aspergilli” value with Aspergilli, A. fumigatus is reported as “little activity”. The tolerability result in [4] is “very well tolerated”.
Take I-mPhe^4-AbA: in the data set on A. fumigatus, the “MIC for A. fumigatus” value is >5 mg/L. The “MIC for C. albicans” value against C. albicans (setting [9]) stood at 2.5 mg/L.
Regarding `CC[C@@H](C)[C@@H]1NC(=O)[C@@H]2CCCN2C(=O)[C@H](Cc2cccc(B(O)O)c2)N(C)C(=O)[C@H](Cc2ccccc2)NC(=O)[C@H](C(C)C)N(C)C(=O)[C@@H]([C@H](C)CC)OC(=O)[C@H](C(C)(C)O)N(C)C(=O)[C@H](CC(C)C)NC(=O)[C@H](C(C)C)N(C)C1=O` [B(OH)2-mPhe^4-AbA] (cyclo([X1][NMeV]F[X2]P[aIle][NMeV]L[NMeVal(β-OH)])), the “MIC for C. albicans” value with C. albicans was <0.05 mg/L.
As for Br-mPhe^4-AbA, the “MIC for A. fumigatus” value with A. fumigatus was determined as 2.5 mg/L. The “MIC for C. albicans” value in the data set with C. albicans (setting [9]) worked out at 0.031 mg/L.
Regarding Boronate-mPhe^4-AbA, the “MIC for A. fumigatus” value with A. fumigatus was 10 mg/L. Further, the “MIC for C. albicans” value in the data set with C. albicans (setting [9]) is <0.5 mg/L.
Regarding `CC[C@@H](C)[C@@H]1NC(=O)[C@@H]2CCCN2C(=O)[C@H](Cc2cccc(-c3cccnc3)c2)N(C)C(=O)[C@H](Cc2ccccc2)NC(=O)[C@H](C(C)C)N(C)C(=O)[C@@H]([C@H](C)CC)OC(=O)[C@H](C(C)(C)O)N(C)C(=O)[C@H](CC(C)C)NC(=O)[C@H](C(C)C)N(C)C1=O` [3-pyridyl-mPhe^4-AbA] (cyclo([X1][NMeV]F[NMePhe(3-(3-pyridyl))]P[aIle][NMeV]L[NMeVal(β-OH)])), the “MIC for C. albicans” value against C. albicans is <0.05 mg/L. The MIC was >64 at 96 hr μg/ml in data set [5], >64 at 96 hrs μg/ml in [6], 0.5 at 96 hrs μg/ml in data set [7] and 2 at 72 hrs μg/ml in [8]. Besides, the “bioavailability and/or clearance as compared to the native drug” value in [1] was “enhanced bioavailability and/or a slower clearance”. The “plasma concentration trend at the end of the 12 hour experiment” value in [1] is recorded as “still be increasing”. In addition, the “plasma concentrations compared with the same dose of native AbA” value in data set [1] (same vehicle) is “significantly higher plasma concentrations”. The “ED50 of native AbA relative to that of 3-pyridyl-mPhe^4-AbA” value with Candida albicans SC5413 (Candidiasis model, mice, oral BID four days) was “almost four times higher”.
Turning to `CC[C@@H](C)[C@@H]1NC(=O)[C@@H]2CCCN2C(=O)[C@H](Cc2cccc(-c3ccccc3)c2)N(C)C(=O)[C@H](Cc2ccccc2)NC(=O)[C@H](C(C)C)N(C)C(=O)[C@@H]([C@H](C)CC)OC(=O)[C@H](C(C)(C)O)N(C)C(=O)[C@H](CC(C)C)NC(=O)[C@H](C(C)C)N(C)C1=O` [Phenyl-mPhe^4-AbA] (cyclo([X1][NMeV]F[NMePhe(3-Ph)]P[aIle][NMeV]L[NMeVal(β-OH)])), the “MIC for C. albicans” value in the data set on C. albicans is <0.05 mg/L.
Consider `CC[C@@H](C)[C@@H]1NC(=O)[C@@H]2CCCN2C(=O)[C@H](Cc2cccc(Br)c2)N(C)C(=O)[C@H](Cc2cccc(Br)c2)NC(=O)[C@H](C(C)C)N(C)C(=O)[C@@H]([C@H](C)CC)OC(=O)[C@H](C(C)(C)O)N(C)C(=O)[C@H](CC(C)C)NC(=O)[C@H](C(C)C)N(C)C1=O` [Br-Phe^3-Br-mPhe^4-AbA] (cyclo([X1][NMeV][Phe(3-Br)][NMePhe(3-Br)]P[aIle][NMeV]L[NMeVal(β-OH)])), for which the “MIC for C. albicans” value against C. albicans is 5 mg/L.
As to MeO-φ-mPhe^4-AbA, the “MIC for C. albicans” value in the data set on C. albicans (setting [9]) was determined as 5 mg/L.
